# According to PMC12040169 (PLOS Biology, 2025):
# Test: in vitro
# Settings: human, hela cells, % viability
row,Compound,"viability at 28.5 h, 10 µM"
1,CC(C)(C)Nc1c(C2CCCN(C(=O)C3CC3)C2)nc2ccccn12 (stereo not shown) [CBK284759],105%
2,Cc1[nH]c2ccccc2c1[C@H]1CC[C@@H](NC(=O)c2ccnn2C)C1 [CBK284761],99.8%
3,O=C1NC2(CCN(C(=O)c3ccco3)CC2)Nc2ccccc21 [CBK284762],104%
4,O=C(NC(Cc1ccccc1)C(O)c1nccs1)C1CC=CCC1 (stereo not shown) [CBK284763],95.3%
5,Cc1cnc2[nH]c(C(F)(F)F)c(CN3CCN(C)CC3)c2c1 [CBK284765],92.3%
6,Cc1cc(C)n(CCNCc2cc(-c3ccccc3)c[nH]c2=O)n1 [CBK284770],101%
7,O=c1[nH]cc(-c2ccccc2)cc1CNc1cccc2ncccc12 [CBK284771],77.1%
8,COCC(=O)NC(Cc1ccsc1)c1nc(C)c(C)s1 (stereo not shown) [CBK284773],100%
9,Cc1nc(C(Cc2ccsc2)NC(=O)C2CCC(=O)N2)sc1C (stereo not shown) [CBK284780],101%
10,Cc1nc(C(Cc2ccsc2)NC(=O)Cn2cccn2)sc1C (stereo not shown) [CBK284781],93.9%
11,OC1(Cn2ccc3ncccc32)CCN(CC2CC=CCC2)CC1 (stereo not shown) [CBK284782],93.6%
12,C=CCNC(=O)C1(Cc2ccccc2-c2ccncc2)CCOCC1 [CBK284784],102%
13,O=C(NC1CC1)C1(Cc2ccccc2-c2ccncc2)CCOCC1 [CBK284785],94.1%
14,O=c1c2ccccc2nc2n1CCN(Cc1ccccc1)CC2 [CBK284790],90.2%
15,O=C1N[C@]2(CCc3ccccc31)CN(Cc1ccsc1)C[C@H]2CO [CBK284793],90.7%
16,O=C1N[C@]2(CCc3ccccc31)CN(CC1CC=CCC1)C[C@H]2CO (stereo partly shown) [CBK284794],96%
17,O=C1N[C@]2(CCc3ccccc31)CN(Cc1ccccc1)C[C@H]2CO [CBK284795],106%
18,COc1ccc(C(C)NC(=O)CCn2ccc3ccncc32)cc1 (stereo not shown) [CBK284798],92.4%
19,O=C1NC2(CCCN(C(=O)c3ccco3)C2)Oc2ccccc21 (stereo not shown) [CBK284800],99.8%

row,Compound,"viability at 28.5 h, 10 µM"
1,Cc1cccnc1C(Cc1ccsc1)NC(=O)Cn1ccnc1 (stereo not shown) [CBK284802],94.1%
2,O=C1NC2(CCCN(C(=O)c3ccco3)C2)Nc2ccccc21 (stereo not shown) [CBK284803],104%
3,Cc1cccnc1C(Cc1ccsc1)NC(=O)CCc1ccno1 (stereo not shown) [CBK284804],86.7%
4,COc1cccc(-c2nccc3ccn(CC(=O)N4CC=CCC4)c23)c1 [CBK284806],104%
5,O=C(NCCn1c(C(F)(F)F)cc(=O)c2cccc(F)c21)C1CC1 [CBK284807],85.5%
6,CCOC(=O)c1cc(Cl)cnc1C1CCN(C(=O)C2CC2)CC1 [CBK284810],94.5%
7,CC(C)(C)NC(=O)c1ccc(-n2ccnc2)c(-n2cccc2)c1 [CBK284811],103%
8,Cc1ccc(CNC(=O)c2ccc(-n3ccnc3)c(-n3cccc3)c2)o1 [CBK284812],99.2%
9,O=c1c2ccccc2nc2n1CCN(Cc1ccc(F)cc1)CC2 [CBK284814],96.9%
10,CC(C)(C)NC(=O)C1C2CCC3(CC(=O)c4ccccc4O3)C21 (stereo not shown) [CBK284821],81.8%
11,COc1ccccc1CN1CCC2(CCCNC2=O)CC1 [CBK284823],85.2%
12,O=C1NCCCC12CCN(Cc1cccc3cccnc13)CC2 [CBK284826],92.3%
13,O=C1CCN(Cc2ccccc2)CCN1C(=O)c1cccs1 [CBK284828],88.8%
14,CCC(CC)C(=O)N1CCN(Cc2ccccc2)CCC1=O [CBK284830],87.9%
15,COCCCNC(=O)Cn1cccc2cc(-c3ccc(F)cc3)nc1-2 [CBK284834],93.4%
16,Cc1ncc(CN2CCCC(O)(c3ccc(F)cc3)CC2)n1C (stereo not shown) [CBK284836],89.6%
17,CC1CC1C(=O)NCCc1c[nH]c2cccc(C3(O)CCOCC3)c12 (stereo not shown) [CBK284840],95.7%
18,O=C(CCn1c(C(F)(F)F)cc2cccnc21)NCc1ccncc1 [CBK284841],90.5%
